Assay results reported in patent publication US4055648A, “Papaverine thienyl-carboxylates and medicaments containing them” (Choay S.A., priority 1974, dated 1977).
Entries after “also recorded” stand apart in the source; their conditions may differ. Counter-ions that a name gives are not always drawn.

Legend:
[1] = system: platelet adhesivity (blood); assay: in vitro platelet adhesivity (glass bead column, Raby technique); type: cell-based; settings: at equal doses expressed in terms of papaverine base
Experimental: (§1) The technique used is that described in the study "Disseminated and localized intravascular coagulations" of C. Raby, Masson et Cie, 1970, p. 91-93.
(§2) The parameter used in this technique is the level of platelet adhesivity. The blood to be tested is run through a column of glass beads. Platelet counts are carried out on the blood before and after passage respectively through the glass beads. The difference between these two counts enables the level of platelet adhesivity to be estimated. Comparison of the adhesivity ratios, measured in the treated animals and in the controlled animals, enables the effect of the product under test to be estimated.
In in vitro test the levels of platelet adhesivity measured on control specimens of blood and on blood specimens to which have previously been added doses of the product under test, are compared.
(§3) Papaverine thienyl-2-carboxylate has, in all these tests, been applied in the dissolved state in a 1 % aquous solution of methanol in isotonic chloride solution, in the proportion of 13 mg of papaverine thienyl-2-carboxylate per 100 ml of this solution.

solubility = type: physicochemical
LD50 by the oral route = settings: in vivo, mouse
Source text: Study of the LD50 (by the oral route) in the mouse has established the complete inoccuousness of papaverine thienyl-carboxylates.

[2] = system: platelet adhesivity; disturbances of electrogenesis at the level of the brain; assay: overall comparison of papaverinic activity (platelet adhesivity, brain disturbances, cortical reactivity); settings: associated with / expressed as papaverine base
platelet adhesivity = assay: in vivo platelet adhesivity in thrombin-sensitized rabbit; settings: thrombin 20 U i.v.
Experimental: as §1, §2
In the in vivo test the animal to be tested (the rabbit) is injected with thrombin (20 U) by the intravenous route, for the purpose of sensitizing the platelets, and the product under study is then injected. The behavior of the platelets is studied by samples taken before and after administration of the product under study.
as §3
30 Animals were treated in the in vivo tests:
10 animals with the thrombin alone (control animals), […]

[3] = system: unilateral cerebral oedema; assay: unilateral cerebral oedema: cortical electrogenesis ("R" index) and residual cortical reactivity, intraduodenal route; type: in vivo, rabbit
Experimental: The effect of a medicament on the oxygen and glucose metabolisms is estimated, in this test, by the reduction in the deleterious effects of oedema on certain parameters with respect to the controls.
The technique used is that described in the work "Aggressology" 1972, 13, Vol. IV, p. 257-259 (M.G. Borzex, M. Labos, J. Cahn). The principle of the test consists of producing unilateral ablation of a bone flap of 7 to 10 mm diameter in the occipital region. The incision, 48 hours later, of the dura mater or dural (membrane which surrounds the brain) results in the formation of an oedema.
Two essential parameters are selected to judge the seriousness of the oedematous effect and to subsequently permit estimation of the effects of the compound under study: electrogenesis on the "injured" hemisphere and the development of residual cortical reactivity in this same hemisphere.
The electrogenesis is judged by variations in the index (R), defined as the ratio of the number of rapid rhythms (theta arousal rhythm) to the number of slow waves of the electrocorticogram (determined by electroencephalography). On the injured side, the size of the slow waves tends to increase and that of the thetarhythm connected with the arousal response to be eliminated.
The residual cortical reactivity of the hemisphere carrying the cerebral oedema expresses the percentage of reactivity which persists with regard to a sensorial stimulation (auditive stimulation or nociceptive stimulation of the cutanous nerve ends by pinching of the dorsal skin) despite the oedematous degradation.
An active medicament tends to increase the value of the "R" index and to reestablish the residual cortical reactivity of the animals which have undergone the operation. The activities of the medicament expressed in % growth for the index R, and in % growth for the residual cortical reactivity, are compared with results observed in the controls.
The study was carried out on 42 male rabbits, active, of average weight 2.5 kg (and in eight control animals). The product to be tested (papaverine thienyl-2-carboxylate) was administered by the intraduodenal route, […] after ablation of the bone flap and just before the incision of the dural. This route of administration was selected since it is equivalent to the administration by the oral route.
The rabbits studied were divided in the following manner:
a series of eight "control" animals receiving 2 ml/kg of isotonic chloride solution;
three series of eight rabbits, each having received respectively 5, 10 and 20 mg/kg of papaverine hydrochloride;
two series of eight animals, each receiving respectively 6.2 and 12.4 mg/kg of papaverine thienyl-2-carboxylate (dissolved in alcoholized water, containing 1 ml of alcohol per 30 ml of water);
lastly, two rabbits receiving 2 mg/kg of papaverine hydrochloride dissolved in alcoholized water.
The doses of 5 and 10 mg/kg of papaverine hydrochloride correspond respectively to doses of 6.2 and 12.4 mg/kg of papaverine thienyl-2-carboxylate, if reduced to the corresponding doses of papaverine-base (respectively 4.51 and 9.02 mg/kg).
The development of the two above indicated parameters (expressed below in average values) is observed for 30 hours following the incision of the dural.

[4] = administration in repeated doses; cited from earlier work

With `COc1ccc(Cc2nccc3cc(OC)c(OC)cc23)cc1OC` [papaverine thienyl-2-carboxylate] the “activity relative to known salts of papaverine” value [1] was “considerably greater than that of the known salts of papaverine used”, the solubility in methanol (solubility) was “Soluble” and the “solubility in warm ethanol” value (solubility; warm ethanol) was “Soluble”. The LD50 at 48 h (LD50 by the oral route) was 1300 mg/kg, the “papaverinic activity compared with known papaverine salts” value [2] was “to a much higher degree; also recorded: distinctly higher than the salts of papaverine used until now” and the “effect on platelet adhesivity” value (platelet adhesivity; 2.88 γ/ml (2.10 γ/ml papaverine base)) was “act favourably on the adhesivity rate of the platelets”. For the same compound, the “activity in cerebral oedema” value ([3]; 6.2 mg/kg intraduodenal) was “active”, the “effect compared with papaverine hydrochloride 20 mg/kg” value ([3]; 6.2 mg/kg intraduodenal) was “rather similar to that exerted by a dose of 20 mg/kg of papaverine hydrochloride” and the “rabbits with very distinct improvement of the two parameters” value ([3]; 6.2 mg/kg intraduodenal (4.51 mg/kg papaverine base)) was “five rabbits out of eight”. For the same compound, the “extension in the duration of the arousal reactions on the injured hemisphere” value ([3]; 6.2 mg/kg intraduodenal, between second and fourth hours, average in eight rabbits) was 45.4%, the “duration of improvement of the two parameters” value ([3]; 6.2 mg/kg intraduodenal, five rabbits out of eight) was “at least 4 hours” and the “effect compared with papaverine hydrochloride 20 mg/kg” value ([3]; 12.4 mg/kg intraduodenal) was “slightly more intense effect and more prolonged than a dose twice as great of papaverine hydrochloride”. For the same compound, the “persistence of improvement of residual cortical reactivity” value ([3]; 12.4 mg/kg intraduodenal) was “remaining substantially stable during the first 6 hours”, the “rabbits with particularly distinct effect” value ([3]; 12.4 mg/kg intraduodenal) was “seven rabbits out of eight” and the “average rise in the "R" index” value ([3]; 12.4 mg/kg intraduodenal (9.02 mg/kg papaverine base)) was 38.5%. The “average improvement of residual cortical reactivity” value ([3]; 12.4 mg/kg intraduodenal, maximum effect between 2 and 4 hours, eight rabbits) was 54.2%, the “activity on residual cortical reactivity compared with papaverine hydrochloride” value ([3]; intraduodenal) was “much more marked activity” and the “activity compared with papaverine hydrochloride” value ([3]; intraduodenal, collected results) was “distinctly more active than papaverine hydrochloride”.
For `COc1ccc(Cc2nccc3cc(OC)c(OC)cc23)cc1OC` [papaverine], the secondary effects [4] is given as “somnolence, constipation, increased excitability of the reflexes and digestive disorders”.
In the case of `COc1ccc(Cc2nccc3cc(OC)c(OC)cc23)cc1OC` [papaverine thienyl-3-carboxylate, Papaverine thienyl-3-carboxylate], the “solubility in hot ethanol” value (solubility; hot ethanol) is reported as “Soluble”, the solubility in methanol (solubility) is reported as “Soluble” and the solubility (solubility; water, read-out: solutions in water, content of product) is reported as at most 10000 µg/mL.
For `COc1ccc(Cc2nccc3cc(OC)c(OC)cc23)cc1OC` [papaverine hydrochloride, reference compound], the “activity in cerebral oedema” value ([3]; 5 mg/kg intraduodenal (4.51 mg/kg papaverine base), hydrochloride) was “practically inactive; also recorded: practically ineffective”, the “treated animals with biological effect” value ([3]; 10 mg/kg intraduodenal) was “about 50%” and the “rabbits with improved residual cortical reactivity” value ([3]; 10 mg/kg intraduodenal, 2 hours following administration) was “four rabbits out of eight”. The “improvement of residual cortical reactivity (average)” value ([3]; 10 mg/kg intraduodenal, 2 hours following administration, average in eight rabbits) was 29%, the “rise in the "R" index” value ([3]; 10 mg/kg intraduodenal, between 4 and 6 hours) was 14% and the “rise in the "R" index” value ([3]; 10 mg/kg intraduodenal, first 4 hours) was 19%. For the same compound, the “animals affected ("R" ratio)” value ([3]; 20 mg/kg intraduodenal) was “six animals in eight”, the “improvement of residual cortical reactivity” value ([3]; 20 mg/kg intraduodenal, between 4 and 6 hours) was “about 23%” and the “improvement of residual cortical reactivity” value ([3]; 20 mg/kg intraduodenal, during 4 hours, same proportion as "R" ratio) was “improved in the same proportion”.
For `COc1ccc(Cc2nccc3cc(OC)c(OC)cc23)cc1OC` [papaverine citrate, reference compound], the “effect on platelet adhesivity” value (platelet adhesivity; 32 γ/ml (20 γ/ml papaverine base)) was “inactive”.
